Reference: ChEMBL document CHEMBL1157533 (J Med Chem, 2008)

Key:
[1] = AUC (0 to 24 hrs) in dog at 0.32 mg/kg, po; format: ADME, organism-based, Canis lupus familiaris; parameters: time < 24 hr, dose 0.32 mg/kg, route oral; conditions: plasma
[2] = molecular target: Beta-3 adrenergic receptor (Homo sapiens, UniProt P13945); assay: Agonist activity at human recombinant beta3 adrenergic receptor expressed in CHO cells assessed as cAMP accumulation by enzyme immuno assay; format: functional, cell-based
Chain of Beta-3 adrenergic receptor (Homo sapiens, UniProt P13945) (P13945 whole entry): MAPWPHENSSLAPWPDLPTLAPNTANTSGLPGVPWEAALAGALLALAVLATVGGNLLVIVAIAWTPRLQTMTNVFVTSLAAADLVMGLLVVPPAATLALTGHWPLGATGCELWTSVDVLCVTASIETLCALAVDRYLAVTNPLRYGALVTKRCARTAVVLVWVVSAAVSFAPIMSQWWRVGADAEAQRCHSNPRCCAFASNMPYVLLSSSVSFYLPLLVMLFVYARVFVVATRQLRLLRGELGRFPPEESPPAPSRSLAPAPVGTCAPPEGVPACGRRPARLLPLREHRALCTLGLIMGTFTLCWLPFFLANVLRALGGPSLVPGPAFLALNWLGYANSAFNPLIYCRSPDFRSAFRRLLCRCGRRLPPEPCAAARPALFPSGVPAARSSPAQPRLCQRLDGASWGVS

[3] = molecular target: Beta-3 adrenergic receptor (Canis lupus familiaris, UniProt O02662); assay: Agonist activity at dog recombinant beta3 adrenergic receptor expressed in CHO cells assessed as cAMP accumulation by enzyme immuno assay; format: functional, cell-based
Chain of Beta-3 adrenergic receptor (Canis lupus familiaris, UniProt O02662) (O02662 whole entry): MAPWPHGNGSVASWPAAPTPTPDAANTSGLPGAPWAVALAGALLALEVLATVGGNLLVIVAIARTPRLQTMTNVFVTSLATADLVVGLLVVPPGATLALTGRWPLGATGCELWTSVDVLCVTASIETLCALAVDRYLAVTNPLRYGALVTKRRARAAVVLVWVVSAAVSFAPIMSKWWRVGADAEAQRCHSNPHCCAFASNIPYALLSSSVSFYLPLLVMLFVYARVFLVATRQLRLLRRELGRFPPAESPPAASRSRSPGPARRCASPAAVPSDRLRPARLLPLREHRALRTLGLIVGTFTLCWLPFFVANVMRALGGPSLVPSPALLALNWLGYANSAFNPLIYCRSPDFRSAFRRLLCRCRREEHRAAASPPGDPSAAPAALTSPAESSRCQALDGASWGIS

[4] = Terminal half life in dog plasma at 0.32 mg/kg, iv; format: ADME, organism-based, Canis lupus familiaris; parameters: dose 0.32 mg/kg, route intravenous; conditions: read-out: beta t1/2 (converted)
[5] = AUC (0 to 24 hrs) in rat at 1.0 mg/kg, po; format: ADME, organism-based; parameters: time < 24 hr, dose 1 mg/kg, route oral; conditions: plasma
[6] = Total clearance in rat at 1.0 mg/kg, iv; format: ADME, organism-based; parameters: dose 1 mg/kg, route intravenous; conditions: in vivo
[7] = molecular target: Beta-2 adrenergic receptor (Homo sapiens, UniProt P07550); assay: Agonist activity at human recombinant beta2 adrenergic receptor expressed in CHO cells assessed as cAMP accumulation by enzyme immuno assay; format: functional, cell-based
Chain of Beta-2 adrenergic receptor (P07550 whole entry): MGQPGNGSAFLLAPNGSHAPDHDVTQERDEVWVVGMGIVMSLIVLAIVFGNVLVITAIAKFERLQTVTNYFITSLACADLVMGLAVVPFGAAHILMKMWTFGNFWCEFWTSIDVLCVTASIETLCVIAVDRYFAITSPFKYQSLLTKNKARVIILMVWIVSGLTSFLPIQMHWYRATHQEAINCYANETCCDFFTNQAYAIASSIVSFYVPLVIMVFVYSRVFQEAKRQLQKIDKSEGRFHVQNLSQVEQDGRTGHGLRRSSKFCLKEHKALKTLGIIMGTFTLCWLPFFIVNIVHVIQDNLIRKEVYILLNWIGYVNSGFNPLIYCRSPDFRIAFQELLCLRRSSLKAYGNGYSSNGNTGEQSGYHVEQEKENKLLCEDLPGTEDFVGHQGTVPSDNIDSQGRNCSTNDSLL

[8] = molecular target: Beta-1 adrenergic receptor (Homo sapiens, UniProt P08588); assay: Agonist activity at human recombinant beta-1 adrenergic receptor expressed in CHO cells assessed as cAMP accumulation by enzyme immuno assay; format: functional, cell-based
Chain of Beta-1 adrenergic receptor (P08588 whole entry): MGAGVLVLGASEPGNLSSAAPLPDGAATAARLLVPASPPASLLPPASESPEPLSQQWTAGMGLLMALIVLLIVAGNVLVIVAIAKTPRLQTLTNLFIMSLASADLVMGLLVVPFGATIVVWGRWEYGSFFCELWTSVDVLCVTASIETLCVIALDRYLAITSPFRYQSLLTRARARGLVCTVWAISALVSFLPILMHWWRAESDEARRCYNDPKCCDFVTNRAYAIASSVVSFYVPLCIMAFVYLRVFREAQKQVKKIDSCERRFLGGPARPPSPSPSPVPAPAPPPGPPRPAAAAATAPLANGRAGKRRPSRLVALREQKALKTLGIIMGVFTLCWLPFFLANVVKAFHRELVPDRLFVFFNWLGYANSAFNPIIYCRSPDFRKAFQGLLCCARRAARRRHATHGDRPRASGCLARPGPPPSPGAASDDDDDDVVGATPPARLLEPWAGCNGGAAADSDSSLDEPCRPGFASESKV

[9] = species on record: Canis familiaris; assay: cells; conditions: Canis lupus familiaris, 3 h
Description: Inhibition of carbachol-induced increase in intravesical pressure in intraduodenally dosed Beagle dog OAB model for 180 mins

[10] = Cmax in monkey at 0.27 mg/kg, po by cassette assay; format: ADME, organism-based, Macaca mulatta; parameters: dose 0.27 mg/kg, route oral; conditions: rhesus monkey, in vivo
[11] = Bioavailability in monkey at 0.27 mg/kg, po by cassette assay; format: ADME, organism-based, Macaca mulatta; conditions: rhesus monkey, in vivo
[12] = Protein binding in Beagle dog serum; format: ADME, cell-free, Canis lupus familiaris; conditions: read-out: PPB (converted)
[13] = Total clearance in dog at 0.32 mg/kg, iv; format: ADME, organism-based, Canis lupus familiaris; parameters: dose 0.32 mg/kg, route intravenous; conditions: in vivo
[14] = Bioavailability in rat at 1.0 mg/kg, po; format: ADME, organism-based; conditions: in vivo
[15] = Terminal half life in rat plasma at 1.0 mg/kg, iv; format: ADME, organism-based; parameters: dose 1 mg/kg, route intravenous; conditions: read-out: beta t1/2 (converted)
[16] = Cmax in dog at 0.32 mg/kg, po; format: ADME, organism-based, Canis lupus familiaris; parameters: dose 0.32 mg/kg, route oral; conditions: in vivo
[17] = Terminal half life in monkey plasma at 0.27 mg/kg, iv by cassette assay; format: ADME, organism-based, Macaca mulatta; parameters: dose 0.27 mg/kg, route intravenous; conditions: rhesus monkey, read-out: beta t1/2 (converted)
[18] = AUC (0 to 24 hrs) in monkey at 0.27 mg/kg, po by cassette assay; format: ADME, organism-based, Macaca mulatta; parameters: time < 24 hr, dose 0.27 mg/kg, route oral; conditions: rhesus monkey, plasma
[19] = Bioavailability in dog at 0.32 mg/kg, po; format: ADME, organism-based, Canis lupus familiaris; conditions: in vivo
[20] = Cmax in rat at 1.0 mg/kg, po; format: ADME, organism-based; parameters: dose 1 mg/kg, route oral; conditions: in vivo
[21] = Total clearance in monkey at 0.27 mg/kg, iv by cassette assay; format: ADME, organism-based, Macaca mulatta; parameters: dose 0.27 mg/kg, route intravenous; conditions: rhesus monkey, in vivo
[22] = Metabolic stability assessed as intrinsic clearance in monkey liver microsome in presence of NADPH-generating system; format: ADME, Macaca mulatta; conditions: rhesus monkey, liver microsomes
[23] = Metabolic stability assessed as intrinsic clearance in rat liver microsome in presence of NADPH-generating system; format: ADME; conditions: liver microsomes
[24] = Total clearance in monkey at 0.32 mg/kg, iv by cassette assay; format: ADME, organism-based, Macaca mulatta; parameters: dose 0.32 mg/kg, route intravenous; conditions: rhesus monkey, in vivo
[25] = Terminal half life in monkey plasma at 0.32 mg/kg, iv by cassette assay; format: ADME, organism-based, Macaca mulatta; parameters: dose 0.32 mg/kg, route intravenous; conditions: rhesus monkey, read-out: beta t1/2 (converted)
[26] = Metabolic stability assessed as intrinsic clearance in human liver microsome in presence of NADPH-generating system; format: ADME; conditions: liver microsomes
[27] = Bioavailability in monkey at 0.32 mg/kg, po by cassette assay; format: ADME, organism-based, Macaca mulatta; conditions: rhesus monkey, in vivo
[28] = AUC (0 to 24 hrs) in monkey at 0.32 mg/kg, po by cassette assay; format: ADME, organism-based, Macaca mulatta; parameters: time < 24 hr, dose 0.32 mg/kg, route oral; conditions: rhesus monkey, plasma
[29] = Metabolic stability assessed as intrinsic clearance in dog liver microsome in presence of NADPH-generating system; format: ADME, Canis lupus familiaris; conditions: liver microsomes
[30] = Total clearance in rat at 0.26 mg/kg, iv by cassette assay; format: ADME, organism-based; parameters: dose 0.26 mg/kg, route intravenous; conditions: in vivo
[31] = Bioavailability in rat at 0.26 mg/kg, po by cassette assay; format: ADME, organism-based; conditions: in vivo
[32] = AUC (0 to 24 hrs) in rat at 0.26 mg/kg, po by cassette assay; format: ADME, organism-based; parameters: time < 24 hr, dose 0.26 mg/kg, route oral; conditions: plasma
[33] = Total clearance in monkey at 0.28 mg/kg, iv by cassette assay; format: ADME, organism-based, Macaca mulatta; parameters: dose 0.28 mg/kg, route intravenous; conditions: rhesus monkey, in vivo
[34] = Bioavailability in monkey at 0.28 mg/kg, po by cassette assay; format: ADME, organism-based, Macaca mulatta; conditions: rhesus monkey, in vivo
[35] = AUC (0 to 24 hrs) in monkey at 0.28 mg/kg, po by cassette assay; format: ADME, organism-based, Macaca mulatta; parameters: time < 24 hr, dose 0.28 mg/kg, route oral; conditions: rhesus monkey, plasma
[36] = Cmax in rat at 0.26 mg/kg, po by cassette assay; format: ADME, organism-based; parameters: dose 0.26 mg/kg, route oral; conditions: in vivo
[37] = Terminal half life in rat plasma at 0.26 mg/kg, iv by cassette assay; format: ADME, organism-based; parameters: dose 0.26 mg/kg, route intravenous; conditions: read-out: beta t1/2 (converted)
[38] = Terminal half life in monkey plasma at 0.28 mg/kg, iv by cassette assay; format: ADME, organism-based, Macaca mulatta; parameters: dose 0.28 mg/kg, route intravenous; conditions: rhesus monkey, read-out: beta t1/2 (converted)
[39] = Cmax in monkey at 0.28 mg/kg, po by cassette assay; format: ADME, organism-based, Macaca mulatta; parameters: dose 0.28 mg/kg, route oral; conditions: rhesus monkey, in vivo
[40] = Bioavailability in monkey at 0.30 mg/kg, po by cassette assay; format: ADME, organism-based, Macaca mulatta; conditions: rhesus monkey, in vivo, 0.3 mg/kg
[41] = Total clearance in dog at 0.1 mg/kg, iv; format: ADME, organism-based, Canis lupus familiaris; parameters: dose 0.1 mg/kg, route intravenous; conditions: in vivo
[42] = Cmax in dog at 0.1 mg/kg, po; format: ADME, organism-based, Canis lupus familiaris; parameters: dose 0.1 mg/kg, route oral; conditions: in vivo
[43] = Cmax in monkey at 0.30 mg/kg, po by cassette assay; format: ADME, organism-based, Macaca mulatta; parameters: dose 0.3 mg/kg, route oral; conditions: rhesus monkey, in vivo, 0.3 mg/kg
[44] = Total clearance in monkey at 0.30 mg/kg, iv by cassette assay; format: ADME, organism-based, Macaca mulatta; parameters: dose 0.3 mg/kg, route intravenous; conditions: rhesus monkey, in vivo, 0.3 mg/kg
[45] = AUC (0 to 24 hrs) in dog at 0.1 mg/kg, po; format: ADME, organism-based, Canis lupus familiaris; parameters: time < 24 hr, dose 0.1 mg/kg, route oral; conditions: plasma
[46] = Bioavailability in dog at 0.1 mg/kg, po; format: ADME, organism-based, Canis lupus familiaris; conditions: in vivo
[47] = AUC (0 to 24 hrs) in monkey at 0.30 mg/kg, po by cassette assay; format: ADME, organism-based, Macaca mulatta; parameters: time < 24 hr, dose 0.3 mg/kg, route oral; conditions: rhesus monkey, plasma, 0.3 mg/kg
[48] = Terminal half life in dog at 0.1 mg/kg, iv; format: ADME, organism-based, Canis lupus familiaris; parameters: dose 0.1 mg/kg, route intravenous; conditions: in vivo, read-out: beta t1/2 (converted)

Compound	AUC(0-t) at 24 h [1] [ng·h/mL]	EC50 [2] [nM]	EC50 [3] [nM]	half-life [4] [h]	AUC(0-t) at 24 h [5] [ng·h/mL]	clearance [6] [mL/min/kg]	EC50 [7] [nM]	EC50 [8] [nM]	EC50 [9] [nM]	ED50 [9] [mg/kg]	fraction unbound [12]	clearance [13] [mL/min/kg]	bioavailability [14] [%]	half-life [15] [h]	Cmax [16] [ng/mL]	bioavailability [19] [%]	Cmax [20] [ng/mL]	clearance [41] [mL/min/kg]	Cmax [42] [ng/mL]	AUC(0-t) at 24 h [45] [ng·h/mL]	also measured
CC(C)Oc1cc(-c2ccc(CCNC[C@H](O)c3cccnc3)cc2)ccc1C(=O)O	461	1.5	11	9.9	548	16	> 10000	> 1000	7.8	0.0284	0.23	6.4	61.5	3.5	27	63.2	172				Cmax [10]: 11 ng/mL; bioavailability [11]: 25.7%; half-life [17]: 2.2 h; AUC(0-t) at 24 h [18]: 77.5 ng·h/mL; clearance [21]: 22.8 mL/min/kg
CC(C)Cc1cc(-c2ccc(CCNC[C@H](O)c3ccc(N)nc3)cc2)ccc1C(=O)O	177	0.066	3.2	7.6	208	8.5	3200	150	1.8	0.0161	0.2	7.9	12.4	1.9	49.1	27	21.9				CLint scaled [22]: 3.8 mL/min/kg; CLint scaled [23]: < 2 mL/min/kg; clearance [24]: 24.3 mL/min/kg; half-life [25]: 5.9 h; CLint scaled [26]: 2.2 mL/min/kg; bioavailability [27]: 48.6%; AUC(0-t) at 24 h [28]: 90.8 ng·h/mL; CLint scaled [29]: < 2 mL/min/kg
O=C(O)c1ccc(-c2ccc(CCNC[C@H](O)c3cccnc3)cc2)cc1OC1CCCCC1	58.1	0.26	1.3				> 10000	480			0.1	47.7			11.4	60					clearance [30]: 15.8 mL/min/kg; bioavailability [31]: 82.5%; AUC(0-t) at 24 h [32]: 245 ng·h/mL; clearance [33]: 3.4 mL/min/kg; bioavailability [34]: 10.7%; AUC(0-t) at 24 h [35]: 153 ng·h/mL; Cmax [36]: 72.4 ng/mL; half-life [37]: 3.3 h; half-life [38]: 10.3 h; Cmax [39]: 18.6 ng/mL
CCCOc1cc(-c2ccc(C[C@@H](C)NC[C@H](O)c3cccnc3)cc2)ccc1C(=O)O		0.064	0.51				> 1000	190	0.28	0.0048	0.18							24.3	3	35.5	bioavailability [40]: 57.2%; Cmax [43]: 8.2 ng/mL; clearance [44]: 47 mL/min/kg; bioavailability [46]: 54.9%; AUC(0-t) at 24 h [47]: 65.2 ng·h/mL
C[C@H](Cc1ccc(-c2ccc(C(=O)O)cc2)cc1)NC[C@H](O)c1cccnc1		0.49			103	34.3	> 1000	75					25.2	1.91			22	4.4	30.5	207	half-life [48]: 6.4 h; bioavailability [46]: 59.7%
